Tests used:
PI3K α = biological target: T1, PI3K α (Homo sapiens, UniProt P42336); assay: In vitro PI3 kinase enzyme assay (alpha), ATP loss, bioluminescence; type: biochemical; details: read-out: PI3Kα ATP loss IC50;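 also: purified p110α/p85 heterodimer acting on PtdIns(4,5)P2 at room temperature, remaining ATP read by luminescence, inhibition scaled between compound-free wells with and without enzyme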
T1 construct: Full length p110 subunits of PI3K α, β and δ, N-terminally labeled with polyHis tag; polyHis (N); made in house; host or cells: Sf9 insect cells (baculovirus)
T1 sequence (P42336 whole entry, species assumed): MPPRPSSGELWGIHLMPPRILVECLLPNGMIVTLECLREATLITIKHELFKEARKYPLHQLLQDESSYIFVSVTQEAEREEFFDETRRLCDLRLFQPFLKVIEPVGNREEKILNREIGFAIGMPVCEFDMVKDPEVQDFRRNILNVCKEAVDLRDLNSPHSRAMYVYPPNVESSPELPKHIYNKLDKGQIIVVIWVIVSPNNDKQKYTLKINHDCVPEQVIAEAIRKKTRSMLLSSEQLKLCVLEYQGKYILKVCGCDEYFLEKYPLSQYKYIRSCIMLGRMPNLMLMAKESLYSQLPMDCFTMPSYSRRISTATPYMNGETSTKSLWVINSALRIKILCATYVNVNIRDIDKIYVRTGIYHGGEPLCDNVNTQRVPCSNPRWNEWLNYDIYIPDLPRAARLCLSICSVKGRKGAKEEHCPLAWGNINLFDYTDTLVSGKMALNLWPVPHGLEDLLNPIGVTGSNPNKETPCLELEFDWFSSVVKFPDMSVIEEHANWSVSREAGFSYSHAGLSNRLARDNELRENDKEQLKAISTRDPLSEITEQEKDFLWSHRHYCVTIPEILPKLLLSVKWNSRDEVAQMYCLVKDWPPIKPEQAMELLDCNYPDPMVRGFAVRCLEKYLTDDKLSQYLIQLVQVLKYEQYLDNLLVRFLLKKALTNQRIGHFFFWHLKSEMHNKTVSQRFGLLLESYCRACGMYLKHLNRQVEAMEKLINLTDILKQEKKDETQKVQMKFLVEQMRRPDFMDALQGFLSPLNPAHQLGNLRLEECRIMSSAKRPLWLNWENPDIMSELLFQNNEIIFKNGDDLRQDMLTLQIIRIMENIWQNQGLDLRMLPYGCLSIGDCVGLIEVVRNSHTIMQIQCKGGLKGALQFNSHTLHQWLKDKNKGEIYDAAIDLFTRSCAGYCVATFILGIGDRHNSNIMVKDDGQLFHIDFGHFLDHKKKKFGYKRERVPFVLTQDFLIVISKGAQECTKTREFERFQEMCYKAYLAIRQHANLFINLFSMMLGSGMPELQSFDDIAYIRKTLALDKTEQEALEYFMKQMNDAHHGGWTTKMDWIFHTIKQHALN
T1 sequence (P27986 whole entry partner, species assumed): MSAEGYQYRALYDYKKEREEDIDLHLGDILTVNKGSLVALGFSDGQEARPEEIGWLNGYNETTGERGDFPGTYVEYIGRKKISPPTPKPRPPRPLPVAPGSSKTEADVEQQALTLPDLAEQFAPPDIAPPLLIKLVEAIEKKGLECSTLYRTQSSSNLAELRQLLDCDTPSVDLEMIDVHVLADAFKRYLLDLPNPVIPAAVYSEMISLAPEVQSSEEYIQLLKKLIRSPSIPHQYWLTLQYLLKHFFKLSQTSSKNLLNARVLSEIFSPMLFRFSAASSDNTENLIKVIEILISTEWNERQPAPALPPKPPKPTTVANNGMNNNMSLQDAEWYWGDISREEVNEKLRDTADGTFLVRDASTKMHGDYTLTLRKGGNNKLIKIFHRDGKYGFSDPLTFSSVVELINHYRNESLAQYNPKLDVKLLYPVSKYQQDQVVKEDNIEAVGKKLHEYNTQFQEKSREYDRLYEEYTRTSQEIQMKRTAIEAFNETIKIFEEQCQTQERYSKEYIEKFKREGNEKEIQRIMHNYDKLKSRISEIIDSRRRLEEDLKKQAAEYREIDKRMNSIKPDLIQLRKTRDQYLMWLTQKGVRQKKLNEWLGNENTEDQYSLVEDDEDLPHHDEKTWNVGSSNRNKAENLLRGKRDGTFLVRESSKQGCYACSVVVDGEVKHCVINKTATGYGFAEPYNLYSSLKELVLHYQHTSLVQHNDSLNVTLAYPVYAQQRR

PI3K β = biological target: T2, PI3K β (Homo sapiens, UniProt P42338); assay: In vitro PI3 kinase enzyme assay (beta), ATP loss, bioluminescence; type: biochemical; details: read-out: PI3Kβ ATP loss IC50;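 also: purified p110β/p85 heterodimer with PtdIns(4,5)P2 as acceptor, incubated at room temperature, leftover ATP read by luminescence, inhibition scaled to compound-free wells with and without enzyme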
T2 construct: Full length p110 subunits of PI3K α, β and δ, N-terminally labeled with polyHis tag; polyHis (N); made in house; host or cells: Sf9 insect cells (baculovirus)
T2 sequence (P42338 whole entry): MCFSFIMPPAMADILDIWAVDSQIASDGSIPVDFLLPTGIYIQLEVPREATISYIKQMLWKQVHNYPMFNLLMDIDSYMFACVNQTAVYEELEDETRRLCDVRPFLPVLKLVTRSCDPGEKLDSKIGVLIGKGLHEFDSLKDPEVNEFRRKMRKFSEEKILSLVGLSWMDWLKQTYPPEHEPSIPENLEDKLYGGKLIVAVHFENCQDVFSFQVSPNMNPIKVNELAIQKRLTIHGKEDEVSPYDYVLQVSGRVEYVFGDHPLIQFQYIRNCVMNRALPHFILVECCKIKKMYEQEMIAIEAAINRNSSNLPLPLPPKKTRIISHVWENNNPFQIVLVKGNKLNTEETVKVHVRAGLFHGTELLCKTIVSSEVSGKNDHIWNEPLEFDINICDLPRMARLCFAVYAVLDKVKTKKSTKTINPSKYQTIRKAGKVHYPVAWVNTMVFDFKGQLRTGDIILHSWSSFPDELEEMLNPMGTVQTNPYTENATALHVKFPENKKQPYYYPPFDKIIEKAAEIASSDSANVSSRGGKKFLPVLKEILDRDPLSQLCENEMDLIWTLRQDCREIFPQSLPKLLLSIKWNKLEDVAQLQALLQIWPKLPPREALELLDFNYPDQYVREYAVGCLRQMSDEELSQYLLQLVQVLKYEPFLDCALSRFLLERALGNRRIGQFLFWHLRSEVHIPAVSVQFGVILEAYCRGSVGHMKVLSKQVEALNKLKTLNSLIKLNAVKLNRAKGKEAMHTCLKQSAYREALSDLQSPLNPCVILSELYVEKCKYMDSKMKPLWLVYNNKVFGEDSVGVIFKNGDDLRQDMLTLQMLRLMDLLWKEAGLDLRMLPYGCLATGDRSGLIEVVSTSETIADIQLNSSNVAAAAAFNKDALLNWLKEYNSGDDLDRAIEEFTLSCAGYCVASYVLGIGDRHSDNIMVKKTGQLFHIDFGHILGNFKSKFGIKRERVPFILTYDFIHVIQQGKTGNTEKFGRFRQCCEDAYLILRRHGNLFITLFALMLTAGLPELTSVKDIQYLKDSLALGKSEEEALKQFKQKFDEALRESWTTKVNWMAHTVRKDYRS
T2 sequence (P27986 whole entry partner): as the sequence (P27986 whole entry partner, species assumed) above
Description: Full length p110 subunits of PI3K α, β and δ, N-terminally labeled with polyHis tag, were co-expressed with p85 in baculovirus expression vectors in sf9 insect cells. P110/p85 heterodimers were purified by sequential Ni-NTA, Q-HP, and Superdex-100 chromatography. Purified α, β and δ isozymes were stored at −20° C. in 20 mM Tris, pH 8, 0.2M NaCl, 50% glycerol, 5 mM DTT, 2 mM Na cholate.
PI3K enzyme assays (alpha, beta, delta and gamma) were performed in 25 mL with the above final concentrations of components in white polypropylene plates (Costar catalogue #3355). Phosphatidyl inositol phosphoacceptor, PtdIns(4,5)P2 (eg. P4508) was obtained from Echelon Biosciences. The ATPase activity of the alpha and gamma isozymes was not greatly stimulated by PtdIns(4,5)P2 under these conditions and was therefore omitted from the assay of these isozymes. Test compounds were dissolved in DMSO and diluted with three-fold serial dilutions. The compound in DMSO (1 μL) was added per test well, and the inhibition relative to reactions containing no compound, with and without enzyme was determined. After assay incubation at RT, the reaction was stopped and residual ATP determined by addition of an equal volume of a commercial ATP bioluminescence kit (Perkin Elmer EasyLite) according to the manufacturer's instructions, and detected using an Analyst GT luminometer.

[1] = test system: phosphorylation of Serine 473 in Akt, HCT 116 human colon carcinoma cells; assay: Cell-based phospho-AKT Ser473 assay (MSD sandwich immunoassay, IGF-1 stimulated); details: Homo sapiens, HCT-116, HCT 116 cells; read-out: HCT 116 pAKT IC50
In short: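 HCT116 cells, 16,000/well and plated overnight, were pre-treated with serially diluted compound for 2 h at 37 °C, then stimulated with IGF-1 at 100 ng/ml for 15 min. Lysates were assayed for Akt pSer473 by MSD sandwich electrochemiluminescence, and IC50 was derived from dose-response data.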

SMILES	IC50 (PI3K α) [µM]	IC50 (PI3K β) [µM]	IC50 [1] [µM]
CC(=O)Nc1nc2ccc(-c3cnc(Cl)c(NS(=O)(=O)c4cccs4)c3)cc2s1 [Example 186, N-(6-(6-chloro-5-(thiophene-2-sulfonamido)pyridin-3-yl)benzo[d]thiazol-2-yl)acetamide]	0.0066	0.0143	0.0156
CC(=O)Nc1nc2ccc(-c3cnc(Cl)c(NS(=O)(=O)c4ccsc4)c3)cc2s1 [Example 187, N-(6-(6-chloro-5-(thiophene-4-sulfonamido)pyridin-3-yl)benzo[d]thiazol-2-yl)acetamide]	0.0211	0.0421	0.0374
CC(=O)Nc1nc2ccc(-c3cnc(Cl)c(NS(=O)(=O)c4ccc(Cl)s4)c3)cc2s1 [Example 193, N-(6-(6-chloro-5-(2-chlorothiophene-5-sulfonamido)pyridin-3-yl)benzo[d]thiazol-2-yl)acetamide]	0.0068	0.0096	0.0168
CC(=O)Nc1nc2ccc(-c3cncc(NS(=O)(=O)c4ccc(C)cc4)c3)cc2s1 [Example 194, N-(6-(5-(4-methylphenylsulfonamido)pyridin-3-yl)benzo[d]thiazol-2-yl)acetamide]	0.0098	0.0255	0.0276
CC(=O)Nc1nc2ccc(-c3cncc(NS(=O)(=O)c4ccc(F)cc4)c3)cc2s1 [Example 198, N-(6-(5-(4-fluorophenylsulfonamido)pyridin-3-yl)benzo[d]thiazol-2-yl)acetamide]	0.0053	0.0147	0.0404
CC(=O)Nc1nc2ccc(-c3cncc(NS(=O)(=O)c4cccc(F)c4)c3)cc2s1 [Example 199, N-(6-(5-(3-fluorophenylsulfonamido)pyridin-3-yl)benzo[d]thiazol-2-yl)acetamide]	0.0038	0.0103	0.075
CC(=O)Nc1nc2ccc(-c3cncc(NS(=O)(=O)c4ccc(Cl)c(Cl)c4)c3)cc2s1 [Example 200, N-(6-(5-(3,4-dichlorophenylsulfonamido)pyridin-3-yl)benzo[d]thiazol-2-yl)acetamide]	0.0056	0.0098	0.0357
CC(=O)Nc1nc2ccc(-c3cncc(NS(=O)(=O)c4ccc(C(C)(C)C)cc4)c3)cc2s1 [Example 201, N-(6-(5-(4-tert-butylphenylsulfonamido)pyridin-3-yl)benzo[d]thiazol-2-yl)acetamide]	0.0065	0.0111	0.117
CC(=O)Nc1nc2ccc(-c3ccnc(N(C)S(=O)(=O)c4ccc(C)c(C)c4)n3)cc2s1 [Example 210, N-(6-(2-(N,3,4-trimethylphenylsulfonamido)pyrimidin-4-yl)benzo[d]thiazol-2-yl)acetamide]	0.0147	0.0391	0.0593
CC(=O)Nc1nc2ccc(-c3ccnc(N(C)S(=O)(=O)c4ccc5ccccc5c4)n3)cc2s1 [Example 214, N-(6-(2-(N-methylnaphthalene-2-sulfonamido)pyrimidin-4-yl)benzo[d]thiazol-2-yl)acetamide]	0.074	0.0862	0.256
CC(=O)Nc1nc2ccc(-c3cncc(N(C)S(=O)(=O)c4ccc(F)c(F)c4)c3)cc2s1 [Example 222, N-(6-(5-(3,4-difluoro-N-methylphenylsulfonamido)pyridin-3-yl)benzo[d]thiazol-2-yl)acetamide]	0.377	2.89	2.18
CC(=O)Nc1nc2ccc(-c3cncc(N(C)S(=O)(=O)c4ccccc4)c3)cc2s1 [Example 224, N-(6-(5-(N-methylphenylsulfonamido)pyridin-3-yl)benzo[d]thiazol-2-yl)acetamide]	0.111	1.49	0.145
CC(=O)Nc1nc2ccc(-c3cccc(N(C)S(=O)(=O)c4cccc(C)c4)n3)cc2s1 [Example 225, N-(6-(6-(N,3-dimethylphenylsulfonamido)pyridin-2-yl)benzo[d]thiazol-2-yl)acetamide]	0.0647	0.294	0.244

Continued, values first:

IC50 (PI3K α) [µM]	IC50 (PI3K β) [µM]	IC50 [1] [µM]	SMILES
0.0154	0.0349	0.0363	CCCS(=O)(=O)Nc1cc(-c2ccc3nc(NC(C)=O)sc3c2)cnc1Cl [Example 177, N-(6-(6-chloro-5-(propylsulfonamido)pyridin-3-yl)benzo[d]thiazol-2-yl)acetamide]
0.0106	0.0199	0.0156	CCCCS(=O)(=O)Nc1cc(-c2ccc3nc(NC(C)=O)sc3c2)cnc1Cl [Example 178, N-(6-(5-(butylsulfonamido)-6-chloropyridin-3-yl)benzo[d]thiazol-2-yl)acetamide]
0.0127	0.0307	0.0294	CC(=O)Nc1nc2ccc(-c3cnc(Cl)c(NS(=O)(=O)C(C)C)c3)cc2s1 [Example 179, N-(6-(6-chloro-5-(propan-2-ylsulfonamido)pyridin-3-yl)benzo[d]thiazol-2-yl)acetamide]
0.006	0.006	0.0249	CC(=O)Nc1nc2ccc(-c3cnc(Cl)c(NS(=O)(=O)c4ccc(OC(F)F)cc4)c3)cc2s1 [Example 182, N-(6-(6-chloro-5-(4-(difluoromethoxy)phenylsulfonamido)pyridin-3-yl)benzo[d]thiazol-2-yl)acetamide]
0.0072	0.0122	0.0065	CC(=O)Nc1nc2ccc(-c3cnc(Cl)c(NS(=O)(=O)c4cccc(OC(F)F)c4)c3)cc2s1 [Example 184, N-(6-(6-chloro-5-(3-(difluoromethoxy)phenylsulfonamido)pyridin-3-yl)benzo[d]thiazol-2-yl)acetamide]
0.0069	0.0254	0.11	CC(=O)Nc1nc2ccc(-c3cnc(Cl)c(NS(=O)(=O)Cc4ccccc4)c3)cc2s1 [Example 188, N-(6-(6-chloro-5-(phenylmethylsulfonamido)pyridin-3-yl)benzo[d]thiazol-2-yl)acetamide]
0.0064	0.0077	0.0039	CC(=O)Nc1nc2ccc(-c3cnc(Cl)c(NS(=O)(=O)c4ccc(C)cc4)c3)cc2s1 [Example 189, N-(6-(6-chloro-5-(4-methylphenylsulfonamido)pyridin-3-yl)benzo[d]thiazol-2-yl)acetamide]
0.0067	0.0157	0.123	CC(=O)Nc1nc2ccc(-c3cncc(NS(=O)(=O)c4ccc(C(F)(F)F)cc4)c3)cc2s1 [Example 196, N-(6-(5-(4-(trifluoromethyl)phenylsulfonamido)pyridin-3-yl)benzo[d]thiazol-2-yl)acetamide]
0.0094	0.0119	0.0798	CC(=O)Nc1nc2ccc(-c3cncc(NS(=O)(=O)c4cccc(C(F)(F)F)c4)c3)cc2s1 [Example 197, N-(6-(5-(3-(trifluoromethyl)phenylsulfonamido)pyridin-3-yl)benzo[d]thiazol-2-yl)acetamide]
0.0056	0.0317	0.271	CC(=O)Nc1nc2ccc(-c3cncc(NS(=O)(=O)c4ccccc4)c3)cc2s1 [Example 202, N-(6-(5-(phenylsulfonamido)pyridin-3-yl)benzo[d]thiazol-2-yl)acetamide]
0.0295	0.0872	0.0576	CC(=O)Nc1nc2ccc(-c3ccnc(N(C)S(=O)(=O)c4ccc(C(C)(C)C)cc4)n3)cc2s1 [Example 205, N-(6-(2-(4-tert-butyl-N-methylphenylsulfonamido)pyrimidin-4-yl)benzo[d]thiazol-2-yl)acetamide]
0.177	0.194	0.381	CC(=O)Nc1nc2ccc(-c3ccnc(N(C)S(=O)(=O)c4cccs4)n3)cc2s1 [Example 206, N-(6-(2-(N-methylthiophene-2-sulfonamido)pyrimidin-4-yl)benzo[d]thiazol-2-yl)acetamide]
0.0722	0.0603	0.237	CC(=O)Nc1nc2ccc(-c3ccnc(N(C)S(=O)(=O)c4ccc(C)cc4C)n3)cc2s1 [Example 212, N-(6-(2-(N,2,4-trimethylphenylsulfonamido)pyrimidin-4-yl)benzo[d]thiazol-2-yl)acetamide]
0.0913	0.119	0.0928	CC(=O)Nc1nc2ccc(-c3ccnc(N(C)S(=O)(=O)c4ccc(C(F)(F)F)cc4)n3)cc2s1 [Example 213, N-(6-(2-(N-methyl-4-(trifluoromethyl)phenylsulfonamido)pyrimidin-4-yl)benzo[d]thiazol-2-yl)acetamide]
0.0351	0.12	0.0794	CC(=O)Nc1nc2ccc(-c3ccnc(NS(=O)(=O)c4ccc(C)cc4)c3)cc2s1 [Example 216, N-(6-(2-(4-methylphenylsulfonamido)pyridin-4-yl)benzo[d]thiazol-2-yl)acetamide]
0.0792	2.1	0.32	CC(=O)Nc1nc2ccc(-c3cncc(N(C)S(=O)(=O)c4ccc(Cl)c(Cl)c4)c3)cc2s1 [Example 221, N-(6-(5-(3,4-dichloro-N-methylphenylsulfonamido)pyridin-3-yl)benzo[d]thiazol-2-yl)acetamide]
0.0535	3.82	0.417	CC(=O)Nc1nc2ccc(-c3cncc(N(C)S(=O)(=O)c4ccc(C(C)(C)C)cc4)c3)cc2s1 [Example 223, N-(6-(5-(4-tert-butyl-N-methylphenylsulfonamido)pyridin-3-yl)benzo[d]thiazol-2-yl)acetamide]

From patent US7928140B2, “Benzothiazole PI3 kinase modulators for cancer treatment” (Amgen Inc., priority 2007, dated 2011)
